Test results published in patent EP4000617A1, “COMPOSITIONS FOR USE IN THE TREATMENT OF LEUKAEMIA” (Fundació Institut de Recerca Contra la Leucèmia Josep …, priority 2020, dated 2022).

System: Luc-positive MonoMac-1 AML cells
Experiment: Luc-positive MonoMac-1 AML xenograft in NSG mice, bioluminescence imaging
Format: in vivo, NOD-scid IL2Rgamma null (NSG) mice
Conditions: 10 mg/kg intraperitoneally on days 3, 4, 5, 6, 7, 10 and 11, at day 12, in comparison to the control

N,N-dimethyl 3-(10H-benz[b]indeno[2,1-d]thien-10-ylidene) -1-Propanamine [compound 87]
amount of AML cells: remarkable reduction
